This assay has as its system murine macrophage-like cell line J774.A1. Put plainly: Inhibition of cholesterol esterification in mammalian cells (macrophage assay). It is filed as cell-based. The conditions noted are these: J774.A1 macrophages loaded with ac-LDL, 14C-oleic acid; read-out: Cholesterol Esterification IC50. How it is done: B. Assay of the Inhibition of Cholesterol Esterification in Mammalian Cells
The esterification of cholesterol was determined in the murine macrophage-like cell line J774.A1. Cells were seeded in 35 mm wells at a density of 300,000 cells per well in 2 mls of Dulbecco's Eagle Medium (DMEM) supplemented with 10% fetal bovine serum (FBS). Cells were incubated at 37° C. in an atmosphere of 5% CO2 and 93% humidity. After 24 hours the media was changed to 0.68 mls 10% FBS-DMEM containing 34 μg of acetylated human low density lipoprotein (ac-LDL) to increase the intracellular concentration of cholesterol and promote esterification. At 41 hours, various inhibitors were added to the cells in DMSO (10 μl/ml maximum). At 43 hours, the cells were pulsed with 0.1 mM ^14 C-oleic acid (10,000 dpm/nmol) complexed with BSA (bovine serum albumin) to follow cholesterol ester formation. The experiment was terminated at 45 hours by washing the monolayers 3 times with 3 ml of Tris-buffered saline at 4° C. The lipids were extracted by incubating the monolayers with 1.5 ml of hexane:isopropanol (3:2, v/v) for 30 min. under gentle agitation. During this period, 10,000 dpm 3H-cholesteryl linoleate and 10 μg of cholesteryl oleate were added as an internal standard and carrier respectively. The organic solvent was removed and the cells were washed with an additional 1.0 ml of hexane: isopropanol which was combined with the original extract. The cells were allowed to dry overnight, digested with 1.5 ml of 0.2N sodium hydroxide for 1 hour and an aliquot of the solubilized protein used for protein determination using the Lowry method. The organic extract was taken to dryness, the residue resuspended in 100 μl of chloroform and the lipids separated on silica gel impregnated glass fiber plates using a hexane:diethylether:acetic acid (170:30:1, v/v/v) solvent system. Individual lipids were visualized with iodine and the cholesteryl ester spot cut out and transferred to scintillation vials to determine the amount of radioactivity. The conversion of oleic acid to cholesteryl ester in the control averaged 0.54 […] and was increased upon the addition of ac-LDL to about 10.69±0.69 […]. […] It should be noted that many of the intermediates had inhibitory activity in the in vitro ACAT assay and in the macrophage assay.

The term IC50 denotes the concentration that inhibits the measured activity by half. As for `CCCCCCCN(CCCCCCCCSc1nc(-c2ccccc2)c(-c2ccccc2)[nH]1)C(=O)Nc1ccc(F)cc1F` [Example 3, N'-(2,4-difluorophenyl)-N-[8-(4,5-diphenyl-1H-imidazol-2-ylthio)octyl]-N-heptylurea], the IC50 came out at 17500 nM.
Then `CCCCCCCN(CCCCCSc1nc(-c2ccccc2)c(-c2ccccc2)n1C)C(=O)Nc1ccc(F)cc1F` [Example 6, N'-(2.4-difluorophenyl)-N-heptyl-N-[5-(1-methyl-4,5-diphenyl-1H-imidazol-2-ylthio)pentyl]urea], with 3800 nM; and `CCCCCCCN(CCCCCSc1nc(-c2ccccc2)c(-c2ccccc2)[nH]1)C(=O)NCCC` [Example 8, N-[5-(4,5-diphenyl-1H-imidazol-2-ylthio)pentyl]-N-heptyl-N'-propylurea], with 500 nM; and `CCCCCCCN(CCCCCSc1nc(-c2ccccc2)c(-c2ccccc2)[nH]1)C(=O)Nc1c(F)cc(F)cc1F` [Example 71, N-[5-(4,5-diphenyl-1H-imidazol-2-ylthio)pentyl]-N-heptyl-N'-(2,4,6-trifluorophenyl)urea], with 1900 nM.
As to `CCCCCCCN(CCCCCSc1nc(-c2ccccc2)c(-c2ccccc2)[nH]1)C(=O)NC1CCCCC1` [Example 94, N'-cyclohexyl-N-[5-(4,5-diphenyl-1H-imidazol-2-ylthio)pentyl]-N-heptylurea], the IC50 came out at 100 nM.
Then `CCCCCCCN(CCCCCSc1nc(-c2ccccc2)c(-c2ccccc2)[nH]1)C(=O)NC(C)C` [Example 105, N-[5-(4,5-diphenyl-1H-imidazol-2-ylthio)pentyl]-N-heptyl-N'-(1-methylethyl)urea], with 300 nM; and `CCCCCCCN(CCCCCSc1nc(-c2ccccc2)c[nH]1)C(=O)Nc1ccc(F)cc1F` [Example 160, N'-(2,4-difluorophenyl)-N-heptyl-N-[5-(4-phenyl-1H-imidazol-2-ylthio)pentyl]urea], with 1600 nM.
As to `CCCCCCCN(CCSc1nc(-c2ccccc2)c(-c2ccccc2)[nH]1)C(=O)Nc1ccc(F)cc1F` [Example 189, N'-(2,4-difluorophenyl)-N-[2-(4,5-diphenyl-1H-imidazol-2-ylthio)ethyl]-N-heptylurea], the IC50 came to 2200 nM.
As for `CCCN(CCCCCSc1nc(-c2ccccc2)c(-c2ccccc2)[nH]1)C(=O)Nc1ccc(F)cc1F` [Example 190], the IC50 came out at 2200 nM.
Then `CCCCCCCN(CCCCCSc1nc(-c2ccccc2)c(-c2ccccc2)[nH]1)C(=O)Nc1ccc(-c2ccccc2)cc1` [Example 192, N'-[(1,1'-biphenyl)-4-yl]-N-[5-(4,5-diphenyl-1H-imidazol-2-ylthio)pentyl]-N-heptylurea], with 2000 nM; and `CCCCCCCN(CCCCCSc1nc(-c2ccc(C(C)(C)C)cc2)c(-c2ccc(C(C)(C)C)cc2)[nH]1)C(=O)Nc1ccc(F)cc1F` [Example 203], with 50000 nM.
Then `CCCCCCCCNC(=O)N(CCCCCSc1nc(-c2ccccc2)c(-c2ccccc2)[nH]1)c1ccc(F)cc1F` [Example 206, N-(2,4-difluorophenyl)-N-[5-(4,5-diphenyl-1H-imidazol-2-ylthio)pentyl]-N'-octylurea], with 400 nM.
Then `CCCCCCCCNC(=O)N(CCCCCSc1nc(-c2ccccc2)c(-c2ccccc2)[nH]1)c1c(F)cc(F)cc1F` [Example 208], with 2800 nM; and `CCCCCCCN(CCCCCSc1nc(-c2ccccc2)cn1-c1ccccc1)C(=O)Nc1ccc(F)cc1F` [Example 259], with 900 nM; and `CCCCCCCN(CCCCCSc1ncc(-c2ccccc2)n1-c1ccccc1)C(=O)Nc1ccc(F)cc1F` [Example 260], with 6000 nM.
For the molecule `CCCCCCCN(CCCCCSc1nc(-c2ccccc2)c(-c2ccccc2)[nH]1)C(=S)Nc1ccc(F)cc1F` [Example 276, N'-(2,4-difluorophenyl)-N-[5-(4,5-diphenyl-1H-imidazol-2-ylthio)pentyl]-N-heptylthiourea], the IC50 turned out to be 6100 nM.
Then `CCCCCCCN(CCCCC[S+]([O-])c1nc(-c2ccccc2)c(-c2ccccc2)[nH]1)C(=O)Nc1ccc(F)cc1F` (centres unmarked) [Example 278, N'-(2,4-difluorophenyl)-N-[5-(4,5-diphenyl-1H-imidazol-2-ylsulfinyl)pentyl]-N-heptylurea], with 1200 nM; and `CCCCCCCN(CCCCCS(=O)(=O)c1nc(-c2ccccc2)c(-c2ccccc2)[nH]1)C(=O)Nc1ccc(F)cc1F` [Example 281, N'-(2,4-difluorophenyl)-N-[5-[(4,5-diphenyl-1H-imidazol-2-yl)sulfonyl]pentyl]-N-heptylurea], with 3500 nM.
Then `CCCCCCCN(CCCCCSc1nc(-c2ccccc2)c(-c2ccccc2)[nH]1)C(=S)Nc1c(F)cc(F)cc1F` [Example 298, N-[5-(4,5-diphenyl-1H-imidazol-2-ylthio)pentyl]-N-heptyl-N'-(2,4,6-trifluorophenyl)thiourea], with 2500 nM; and `CCCCCCCN(CCCCCNc1nc(-c2ccccc2)c(-c2ccccc2)[nH]1)C(=O)Nc1ccc(F)cc1F` [Example 338, N'-(2,4-difluorophenyl)-N-[5-(4,5-diphenyl-1H-imidazol-2-ylamino)pentyl]-N-heptylurea], with 3400 nM; and `CCCCCCCN(CCCCCCc1nc(-c2ccccc2)c(-c2ccccc2)[nH]1)C(=O)Nc1ccc(F)cc1F` [Example 339, N'-(2,4-difluorophenyl)-N-[6-(4,5-diphenyl-1H-imidazol-2-yl)hexyl]-N-heptylurea], with 4400 nM.
Then `CCCCCCCN(CCCCCSc1nc(-c2ccccc2)c(-c2ccccc2)[nH]1)C(=O)Cc1ccc(F)cc1F` [Example 340, 2,4-difluoro-N-[(5-(4,5-diphenyl-1H-imidazol-2-ylthio)pentyl)]-N-heptylbenzeneacetamide], with 200 nM; and `CCCCCCCN(CCCCCSc1nc(-c2ccccc2)c(-c2ccccc2)[nH]1)C(=O)Cc1ccc(-c2ccccc2)cc1` [Example 343, N-[5-(4,5-diphenyl-1H-imidazol-2-ylthio)pentyl]-N-heptyl[1,1'-biphenyl]-4-acetamide], with 1100 nM.
`CCCCCCCN(CCCCCSc1nc(-c2ccccc2)c(-c2ccccc2)[nH]1)C(=O)CC1CCCCC1` [Example 344]: the IC50 is 400 nM.
Then `CCCCCCCN(CCCCCSc1nc(-c2ccccc2)c(-c2ccccc2)[nH]1)C(=O)c1ccc(F)cc1F` [Example 345], with 300 nM; and `CCCCCCCN(CCCCCSc1nc(-c2ccccc2)c(-c2ccccc2)[nH]1)C(=O)c1ccccc1` [Example 346], with 500 nM; and `CCCCCCCN(CCCCCSc1nc(-c2ccccc2)c(-c2ccccc2)[nH]1)C(=O)OC1CCCCC1` [Example 401, cyclohexyl [5-(4,5-diphenyl-1H-imidazol-2-ylthio)pentyl]heptylcarbamate], with 400 nM.
Take `CCCCCCCN(CCCCCSc1nc(-c2ccccc2)c(-c2ccccc2)[nH]1)C(=O)Oc1ccccc1` [Example 402, Phenyl [5-(4,5-diphenyl-1H-imidazol-2-ylthio)pentyl]heptylcarbamate]: the IC50 worked out at 400 nM.
Then `CCCCCCCN(CCCCCSc1nc(-c2ccccc2)c(-c2ccccc2)[nH]1)C(=N)Nc1ccccc1` [Example 499, N-[5-(4,5-diphenyl-1H-imidazol-2-ylthio)-pentyl]-N-heptyl-N'-phenylguanidine], with 3400 nM.

(Values after patent US5166214A, “Use of imidazoles for the treatment of atherosclerosis” (priority 1990, dated 1992).)
